Calls of active or inactive are those of the source. How the calls were made is not given here.
Target: Kappa-type opioid receptor (Homo sapiens) (UniProt P41145)
Test: kappa opioid receptor blockers, retest – cell-based, fluorescence, confirmation (AID 652082)
Details: OPRK1 cell line, fluorescence antagonist read-out; at 9 µM; active compounds read high

Sequence of Kappa-type opioid receptor (Homo sapiens) (P41145 whole entry, looked up): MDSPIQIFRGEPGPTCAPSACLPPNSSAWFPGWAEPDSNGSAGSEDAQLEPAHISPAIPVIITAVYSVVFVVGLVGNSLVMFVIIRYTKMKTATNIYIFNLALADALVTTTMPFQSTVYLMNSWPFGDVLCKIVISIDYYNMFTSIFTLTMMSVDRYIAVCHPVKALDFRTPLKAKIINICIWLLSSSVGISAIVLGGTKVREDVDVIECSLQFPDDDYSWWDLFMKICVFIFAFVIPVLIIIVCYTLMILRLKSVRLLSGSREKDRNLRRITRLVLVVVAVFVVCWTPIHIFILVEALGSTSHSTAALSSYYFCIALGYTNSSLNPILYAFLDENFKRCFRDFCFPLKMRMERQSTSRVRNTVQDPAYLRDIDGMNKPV

| inhibition | SMILES |
| --- | --- |
| 41.2% (inactive) | NC(=NC(=O)c1cccc(C(F)(F)F)c1)c1ccc(C(F)(F)F)cn1 |
| 58.2% | CN(C)c1cccc2c1c(NC(=O)Nc1ccc(OCc3ccccc3)cc1)nn2C |
| 9.13% (inactive) | O=C(NNC(=O)C(F)(F)F)c1ccc[nH]1 |
| 59.6% | COc1ccccc1NC(=O)NCCN1CCN(Cc2ccccc2)CC1 |
| 58.7% | O=C(N/C(=C\c1ccc(-c2ccc([N+](=O)[O-])cc2)o1)c1nc2ccccc2[nH]1)c1ccccc1 |
| 4.17% (inactive) | CS(=O)(=O)/C(C#N)=C\c1ccc(Cl)s1 |
| 7.76% (inactive) | CC(CCC(C)OC(=O)c1ccccc1C(=O)O)OC(=O)c1ccccc1C(=O)O (stereo unspecified) |
| 46.6% (inactive) | CCOC(=O)c1cn[nH]c1NC(=S)Nc1cccc(C(F)(F)F)c1 |
| 95.2% | CCOC(=O)c1cc(C(=O)OC)c(C)nc1N1CCC(NC2CCCCC2O)CC1 (stereo unspecified) |
| 18.1% (inactive) | COc1ccc([N+](=O)[O-])c(S(=O)(=O)c2ccc(Cl)cc2)n1 |
| 11.3% (inactive) | CC(=O)c1sc2nc(-c3cccs3)cc(C(F)(F)F)c2c1N |
| 62.5% | N#Cc1cccnc1NNC(=O)COCC(=O)O |
| 3.67% (inactive) | COC(=O)c1cnn(-c2ccc(Cl)cc2)c1C=C(C#N)C#N |
| 43.2% (inactive) | Nc1c(C(=O)c2ccccc2)sc2nsc(SCCN3CCCC3)c12 |
| -2.3% (inactive) | O=C(Nc1ccc([N+](=O)[O-])cc1)Nc1csc(-c2cccnc2)n1 |
| 43.7% (inactive) | CN(C)c1cc(NC(=O)Nc2ccccc2)c2ccccc2n1 |
| 15.3% (inactive) | N#Cc1c(S/C=C(\O)c2cc3ccccc3o2)nc2c(c1C(F)(F)F)CCCC2 |
| 0.7% (inactive) | CCOC(=O)C1CCN(Cc2cccc(NC(=O)c3cccs3)c2)CC1 |
| 34.5% (inactive) | COc1cccc(/C=C(\C#N)c2ccc([N+](=O)[O-])cc2)c1OC |
| 49.6% (inactive) | CCN(CC)c1ccc(/C=C/c2ccc([N+](=O)[O-])cc2C#N)cc1 |
| -6.85% (inactive) | N#Cc1cccc(C#N)c1Oc1ccc(N)cc1 |
| -11.1% (inactive) | CC(=O)N1CCC(C(=O)O/N=C(\N)c2ccc(Cl)cc2)CC1 |
| 35.5% (inactive) | CCOC(=O)C1CCN(Cc2cccc(NC(=O)c3ccco3)c2)CC1 |
| 11.6% (inactive) | C=CCNC(=S)NNC(=O)c1oc2nc(-c3ccc(Cl)cc3)cc(-c3ccccc3)c2c1N |
| 0.14% (inactive) | O=C(O)C(F)(F)C(F)(F)C(=O)NCc1cccc(Cl)c1 |
| 15.4% (inactive) | CSc1sc(C(=O)NC(=O)Nc2ccc(Cl)cc2)c2c1-c1nocc1CC2 |

Continued, compound first:

| SMILES | inhibition |
| --- | --- |
| O=[N+]([O-])c1ccc(-c2ccc(/C=N/NC(=S)Nc3cccc(F)c3)o2)cc1 | 60.3% |
| COC(=O)c1ccc(/C=C2\C(=O)Nc3ccccc32)n1-c1ccc(F)cc1 | 12% (inactive) |
| O=[N+]([O-])c1ccc(N/N=C/c2ccc(-c3cccs3)s2)nc1 | 71.3% |
| CC1COC(c2cccc([N+](=O)[O-])c2)N1 (stereo unspecified) | -9.85% (inactive) |
| COC(=O)/C=C1\SC(=Nc2ccc(Cl)cc2)N(c2ccc(Cl)cc2)C1=O | 57.8% |
| Cc1ccc(/C=c2\sc3nc4ccccc4n3c2=O)o1 | 5.32% (inactive) |
| O=C1c2ccc(Cl)c3c(N4CCSCC4)ccc(c23)C(=O)N1c1ccccc1 | 9.35% (inactive) |
| O=C(Nc1ccc(F)c(Cl)c1)c1cc(Br)ccc1O | 62.9% |
| COc1ccccc1C1CCN(Cc2ccc3c(c2)CCC(C)(C)O3)CC1 | 59.5% |
| O=c1c2cc(-c3ccccc3)sc2nnn1/N=C/c1cccs1 | 3.84% (inactive) |
| O=C(/C=C/c1cc(-c2ccccc2)c(C(F)(F)F)s1)c1cccs1 | 20.3% (inactive) |
| c1ccc(-c2cc3ncnc(NCc4ccc5c(c4)OCO5)c3s2)cc1 | -5.98% (inactive) |
| Clc1ccc2c(Nc3ccc4c(c3)OCO4)ccnc2c1 | 30% (inactive) |
| O=C(Nc1ccc(Cl)cc1Cl)c1cc([N+](=O)[O-])cc2c1-c1ccc([N+](=O)[O-])cc1C2=O | 59.2% |
| O=[N+]([O-])c1c(Sc2ccc(Cl)cc2)ccc2nsnc12 | 37.2% (inactive) |
| CSc1ccc(/C=C/c2onc(C)c2[N+](=O)[O-])s1 | 23% (inactive) |
| CCOC(=O)[C@@H](N)CCSC | -3.43% (inactive) |
| Brc1ccc(-c2csc(Nc3ccncc3)n2)cc1 | 34.9% (inactive) |
| C#Cc1cccc(NC(=O)c2sc3nc4c(c(-c5cccs5)c3c2N)CCCC4)c1 | 31.7% (inactive) |
| O=[N+]([O-])c1ccc(C2=NN(c3ccccc3)C(c3ccco3)C2)cc1 (stereo unspecified) | 82.9% |

| SMILES | inhibition |
| --- | --- |
| C=CCn1c(-c2sc3nnc(-c4ccccc4)c(-c4ccccc4)c3c2N)n[nH]c1=S | 30.5% (inactive) |
| Clc1ccc2nc3c(nc2c1)Nc1ccccc1S3 | 80.7% |
| Cn1c(=O)c2cc3cc(Cl)ccc3nc2c2c(=O)n(-c3ccccc3)c(=O)n(-c3ccccc3)c21 | 58.9% |
| Nc1c(C(=O)N/N=C/c2ccc3c(c2)OCO3)sc2nnc(-c3ccccc3)c(-c3ccccc3)c12 | 77.2% |
| COc1cc([N+](=O)[O-])c(OC)cc1SCc1n[nH]c(=S)n1-c1ccc(C)cc1 | 73.3% |
| O=C(c1cnn(-c2ccc(Cl)cc2)c1C(F)(F)F)N1CCN(c2ncnc3ccsc23)CC1 | 79% |
| CN(C)c1ccc(-n2nnnc2SCc2ccc(Cl)cc2)cc1 | 26% (inactive) |
| CCCCCC[n+]1ccccc1/C=C/c1ccc(N(C)C)cc1 | 79.5% |
| O=[N+]([O-])c1ccc(N/N=C2\CCOc3ccc(F)cc32)cc1 | 25.4% (inactive) |
| O=[N+]([O-])c1ccc(N2CCc3ccccc32)cc1 | 17.4% (inactive) |
| COc1ccc(OS(=O)(=O)c2sc(Br)cc2Br)cc1 | 36.2% (inactive) |
| Oc1c(Cl)cc(Cl)cc1C1Nc2cc(Cl)c(C(F)(F)F)cc2N1 (stereo unspecified) | 58.8% |
| CCOC(=O)c1ccc(N2CC3CCCCN3C2c2cccc(OC)c2O)cc1 (stereo unspecified) | 49% (inactive) |
| O=[N+]([O-])c1ccc(-c2ccc(/C=N/Nc3ccccc3)o2)cc1 | 82.8% |
| S=C(NNc1c(Cl)cncc1Cl)Nc1ccc(Cl)cc1Cl | 51.8% (inactive) |
| CCCCNc1ccc2c3c(cccc13)C(=O)N(CCCC)C2=O | 76.8% |
| COc1cccc(C(=O)c2sc3nsc(SCc4ccc(F)cc4)c3c2N)c1 | 2.74% (inactive) |
| CC(=O)Nc1onc(C)c1-c1nc(-c2ccc(Cl)cc2Cl)cs1 | -1.54% (inactive) |
| COC(=O)c1cc(-c2ccc(OC)cc2)c(-c2ccc(OC)cc2)s1 | 68.6% |
| CCCCCCCCCCCC(=O)ON1C(=O)CCC1=O | 36.2% (inactive) |

From PubChem BioAssay AID652082 (The Scripps Research Institute Molecular Screening Center, 2013)
